The values below come from US7560479B2 (priority 2003, dated 2009).

A word on the Ki: it is a measure of affinity in units of concentration, obtained from inhibition or displacement. A higher Ki goes with weaker binding.

In experiment [1] the target is T1, M2 muscarinic receptor subtype (Rattus norvegicus, UniProt P10980).
T1 construct: Submandibular glands and heart were isolated and placed in ice cold homogenising buffer; from tissue; host or cells: rat heart membrane homogenate
T1 sequence (P10980 1-466): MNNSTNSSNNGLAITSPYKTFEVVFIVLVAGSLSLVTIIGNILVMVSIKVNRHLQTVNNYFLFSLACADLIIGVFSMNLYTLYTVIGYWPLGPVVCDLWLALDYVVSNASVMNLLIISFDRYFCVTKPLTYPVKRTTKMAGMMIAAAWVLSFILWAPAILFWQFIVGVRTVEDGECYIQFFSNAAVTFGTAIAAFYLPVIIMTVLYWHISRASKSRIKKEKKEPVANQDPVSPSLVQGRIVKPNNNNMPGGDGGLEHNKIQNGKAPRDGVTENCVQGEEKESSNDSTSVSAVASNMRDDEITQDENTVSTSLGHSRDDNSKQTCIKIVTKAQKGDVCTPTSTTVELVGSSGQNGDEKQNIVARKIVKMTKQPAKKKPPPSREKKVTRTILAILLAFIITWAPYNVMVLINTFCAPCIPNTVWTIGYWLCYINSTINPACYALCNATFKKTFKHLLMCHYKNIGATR
Put plainly: biochemical. The experiment is classed as binding.

The test system of the next experiment is isolated rat bladder. Put plainly: tissue or blood. The experiment is classed as cell-based. Particulars: read-out: Functional Assay pkB.
For experiment [2], the target named is T2, M3 muscarinic receptor subtype (Rattus norvegicus, UniProt P08483).
T2 construct: Submandibular glands and heart were isolated and placed in ice cold homogenising buffer; from tissue; host or cells: rat submandibular gland membrane homogenate
T2 sequence (P08483 whole entry): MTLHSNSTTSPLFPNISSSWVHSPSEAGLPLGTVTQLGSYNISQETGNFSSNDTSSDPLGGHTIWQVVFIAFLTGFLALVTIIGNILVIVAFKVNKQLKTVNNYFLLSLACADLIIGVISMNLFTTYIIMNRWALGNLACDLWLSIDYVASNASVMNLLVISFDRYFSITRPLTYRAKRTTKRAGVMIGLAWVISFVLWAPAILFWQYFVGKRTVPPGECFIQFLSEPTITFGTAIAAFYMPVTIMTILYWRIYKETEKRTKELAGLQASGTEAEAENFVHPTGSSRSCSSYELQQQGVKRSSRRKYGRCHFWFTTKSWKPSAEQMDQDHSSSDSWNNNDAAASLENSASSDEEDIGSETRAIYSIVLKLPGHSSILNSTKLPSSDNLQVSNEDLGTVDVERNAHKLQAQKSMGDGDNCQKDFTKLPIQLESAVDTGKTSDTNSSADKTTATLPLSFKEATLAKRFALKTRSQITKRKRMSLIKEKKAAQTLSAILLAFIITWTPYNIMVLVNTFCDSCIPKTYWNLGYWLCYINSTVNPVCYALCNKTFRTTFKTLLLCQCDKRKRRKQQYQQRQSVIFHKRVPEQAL
As to the kind of experiment: biochemical. The experiment is classed as binding.

Take `CC(C)=CCCN1C[C@@H]2[C@H](C1)[C@H]2NC(=O)[C@@](O)(c1ccccc1)C1CCC(F)(F)C1` (single isomer, unassigned) [Compound 13B, (2S)-(1α, 5α, 6α)-6-N-[3-(4-methyl-3-pentenyl)-3-azabicyclo[3.1.0]-hexyl-2-[(1R or 1S)-3,3-difluorocyclopentyl]-2-hydroxy-2-phenylacetamide]: the Ki is > 10 µM in experiment [1] and 2 µM in experiment [2]. In the experiment with isolated rat bladder, the Kb was 0.0676 µM.
Turning to `O=C(N[C@H]1[C@@H]2CN(CCc3ccc4c(c3)OCO4)C[C@@H]21)[C@@](O)(c1ccccc1)C1CCC(F)C1` (stereo partly drawn) [Compound 11, (2S)-(1α, 5α, 6α)-6-N-[3-(2-(3,4-methylenedioxyphenyl)ethyl]-3-azabicyclo[3.1.0]-hexyl]-2-[(1R or 1S, 3R or 3S)-3-fluorocyclopentyl]-2-hydroxy-2-phenylacetamide], the Ki in experiment [1] is 6.31 µM; in experiment [2] it was 0.0631 µM.
Taken in the same sequence, the figures for `O=C(N[C@H]1[C@@H]2CN(CCc3ccc4c(c3)OCO4)C[C@@H]21)[C@](O)(c1ccccc1)C1CCC(F)(F)C1` (stereo partly drawn) [Compound 9, (2R)-(1α, 5α, 6α)-6-N-[3-(2-(3,4-methylenedioxyphenyl)ethyl]-3-azabicyclo[3.1.0]-hexyl]-2-[(1R or 1S)-3,3-difluorocyclopentyl]-2-hydroxy-2-phenylacetamide] were 4.27 µM and 0.0794 µM.
On to `CC(C)=CCCN1CC2C(C1)C2NC(=O)C(O)(c1ccccc1)C1CCC(F)(F)C1` (single isomer, unassigned) [Compound 14, (2R)-(1α, 5α, 6α)-6-N-[3-(4-methyl-3-pentenyl)-3-azabicyclo[3.1.0]-hexyl]-2-[(1R or 1S)-3,3-difluorocyclopentyl]-2-hydroxy-2-phenylacetamide], for which the Ki is > 10 µM in experiment [1] and 1.58 µM in experiment [2]. Also, the Kb in the experiment on isolated rat bladder was 0.132 µM.
